Earlier results as cited in patent US20050042301A1, “Method of use of Xenon-133 for the treatment of AIDS, other viral and non-viral infections” (priority 2003, published 2005).

Settings: stable xenon; b17 says distributed in the body, b20 says formed in vitro

- size range of gas microbubbles (diameter): 5-10 microns
SMILES: [131Xe] [Xe-131, Xenon-131]
